Columns and labels:
[1] = Plasma concentration in PKPD time course (established OIPN); type: in vivo, male Sprague Dawley rats; details: OIPN rats, single 100 mg/kg PO
Method: The doses were based on previous studies that used these antagonists in animal models of CIPN.[33]–[37]
Quantitative bioanalysis by LC-MS/MS of plasma and spinal cord levels of ART26.12 was carried out by a commercial supplier (Sygnature Discovery, Nottingham, UK).

[2] = test system: CCK1, CCK2, δ (DOP), cathepsin G; test: Subsequent functional assessment of secondary pharmacology hits; type: biochemical
Description: Findings were considered significant if ≥50% inhibition of ligand binding or ≥50% stimulation/inhibition were shown in biochemical assays. Those receptors with values ≥50% were further evaluated for binding and functional half-maximal inhibitory concentrations (IC50).

[3] = test system: PAG, DRG and PFC transcriptomes; test: Transcriptomic analysis (RNA-seq) of terminal tissues, OIPN prevention study; type: in vivo, male Sprague Dawley rats
Description: Pain measurements were made on Days 5/6 (when neuropathy has normally developed) and at the end of the study. […] Terminal plasma samples were taken for bioanalysis and proteomics (Somalogic). Brain regions involved in pain processing, that is, prefrontal cortex (PFC), periaqueductal grey (PAG), whole spinal cords (SC), and L4-L6 dorsal root ganglia, were collected for lipidomic and genomic (Genewiz, China) analyses. Sequencing (Illumnia NovoSeq) was done at Genewiz (Shanghai, China). Sequence reads were trimmed using Trimmomatic (v.0.36). Reads were then aligned to the R. norvegicus Rnor6.0 reference genome (https://www.ncbi.nlm.nih.gov/assembly/GCF_000001895.5/) using the STAR aligner (v.2.5.2b) and unique gene hit counts were calculated using featureCounts from the Subread package (v.1.5.2). Differentially expressed genes were determined using limma 3.46.0. […] Visualisation was done using the EnhancedVolcano (1.7.10) package in R. Gene set enrichment analysis was carried out using the gprofiler2 package in R.

FABP7 = FABP7 (Homo sapiens, UniProt O15540); test: Fluorescence displacement binding assay (ANS probe)
Sequence of FABP7 (O15540 whole entry, species assumed): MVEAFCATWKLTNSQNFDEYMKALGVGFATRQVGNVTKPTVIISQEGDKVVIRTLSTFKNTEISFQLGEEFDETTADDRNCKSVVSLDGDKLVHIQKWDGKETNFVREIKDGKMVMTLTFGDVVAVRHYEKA
Method: Purified FABPs were incubated with 11-(dansylamino)undecanoic acid (DAUDA) (FABP3, FABP5) or 8-anilino-1-naphthalenesulfonic acid (ANS) (FABP7) in the presence or absence of FABP inhibitors (.01–200 μM) in the binding assay buffer. FABP4 binding was assessed using a commercially available kit (Cayman Chemical, Ann Arbor). In all cases, arachidonic acid (10 μM) was included to account for maximal probe displacement. Loss of fluorescence intensity was monitored with an F5 Filtermax Multi-Mode Microplate Reader (Molecular Devices, Sunnyvale) using the following excitation and emission wavelengths (DAUDA: ex./em.= 360/535 nm; ANS: ex./em. = 360/465 nm). Following background subtraction, the fluorescence intensity values were normalised and analyzed via a one-site binding model using the GraphPadPrism (version 9.2). Ki values were determined using the following equation: Ki= IC50/(1 + ([Probe]/Kd).

[4] = Terminal plasma and brain concentrations, OIPN treatment study; type: in vivo; details: after 7 days dosing 25 mg/kg BID
Description: Body weight was monitored throughout the study, and terminal plasma and whole brain samples were taken for bioanalysis.

[5] = Terminal plasma levels, OIPN prevention study; type: in vivo, male Sprague Dawley rats
Description: Pain measurements were made on Days 5/6 (when neuropathy has normally developed) and at the end of the study. […] Terminal plasma samples were taken for bioanalysis and proteomics (Somalogic). Brain regions involved in pain processing, that is, prefrontal cortex (PFC), periaqueductal grey (PAG), whole spinal cords (SC), and L4-L6 dorsal root ganglia, were collected for lipidomic and genomic (Genewiz, China) analyses.

[6] = test system: dorsal root ganglion lipids; test: Lipidomic analysis of terminal tissues, OIPN prevention study; type: in vivo, male Sprague Dawley rats; details: 25 mg/kg BID, versus vehicle, P = .03
Method: Pain measurements were made on Days 5/6 (when neuropathy has normally developed) and at the end of the study. […] Terminal plasma samples were taken for bioanalysis and proteomics (Somalogic). Brain regions involved in pain processing, that is, prefrontal cortex (PFC), periaqueductal grey (PAG), whole spinal cords (SC), and L4-L6 dorsal root ganglia, were collected for lipidomic and genomic (Genewiz, China) analyses. Lipid extraction from tissues was performed as previously described.[40] Samples were flash frozen in liquid nitrogen, weighed and transferred to a centrifuge tube with HPLC-grade methanol (Thermo Fisher Scientific, Fair Lawn, NJ). Tubes were spiked with 500 picomoles d8AEA (Cayman Chemical, Ann Arbor, MI). Samples were left on ice for 2 hours, homogenised and centrifuged at 19,000 g for 20 minutes at 20°C. […] Elution samples were then analysed by HPLC MS/MS as previously described.[40] 20 μL samples were run on an Agilent XDB-C18 reversed-phase analytical column and analysed using an Applied Biosystems API 3,000 triple quadrupole mass spectrometer with electrospray ionisation (Foster City, CA). […] Concentrations in mols/gram were adjusted according to extraction efficiency, as determined by d8AEA recovery. For each individual lipid species, samples were unblinded, fold-change compared to the vehicle was calculated and significance calculated by t-test (P < .05 and P < .1) in R.

For `COc1ccccc1[C@@H]1[C@H](C(=O)O)[C@@H](c2ccccc2OC)[C@H]1C(=O)OC1Cc2ccccc2C1` [ART26.12, (+)–3-Indan-2-yloxycarbonyl-2,4-bis(2-methoxyphenyl)cyclobutanecarboxylic acid], the “peak total plasma concentration” value ([1]; mean ± SEM) was 122 ± 13 µM, the Tmax ([1]; male, Sprague Dawley, rat, plasma, read-out: time of peak plasma concentration) was about 3 h and the “functional assessment at the 4 off-targets” value [2] was “not physiologically relevant”. The “transcriptomic changes in PFC” value [3] was “No significant changes”, the “transcriptomic changes in DRG” value ([3]; P < .05, FC > 1.5) was “only glycine decarboxylase being significantly upregulated” and the “number of significantly different genes in PAG” value ([3]; P < .05, log2FC > .58) was 20 genes. The Ki (FABP7) was 19 ± 1.81 µM, the “average total plasma concentration” value [4] was 6.5 ± .6 µM and the total brain concentration [4] was “.15 ± .02 µM”. The “mean plasma levels on Day 15” value ([5]; 10 mg/kg BID) was 4.49 ± .99 µM, the “mean plasma levels on Day 15” value ([5]; 25 mg/kg BID) was 7.45 ± 1.58 µM and the “increase of N-docosahexaenoyl proline in DRG” value [6] was 9 fold.

Source: paper PMC12993615 (The journal of pain, 2024)
